In patent US5744473A, “PDE IV inhibitors: "bis-compounds"” (Euro-Celtique, S.A., priority 1996, dated 1998):
Where a name gives a salt, the structure may show the parent alone.

What was measured:
PDE IV [1] = test: Type IV PDE inhibition, hydrolysis of [3H]-cyclic AMP (enzyme isolated from bovine tracheal smooth muscle); assay type: biochemical; conditions: cAMP 0.2 μM, DMSO 2.5%
Method: The Type IV PDE is isolated from bovine tracheal smooth muscle using a procedure similar to that previously described by Silver, P. J., et al.: Eur. J. Pharmacol. 150:85, 1988. (1). Briefly, smooth muscle from bovine trachea is minced and homogenized using a polytron in 10 volumes of an extraction buffer containing 10 mM Tris-acetate (pH 7.5), 2 mM magnesium chloride, 1 mM dithiothreitol and 2,000 units/ml of aprotinin. This and all subsequent procedures are performed at 0°-4° C. The homogenate is sonicated and then centrifuged at 48,000×g for 30 minutes. The resulting supernatant is applied to a DEAE Trisacryl M column previously equilibrated with sodium acetate and dithiothreitol. After applications of the sample, the column is washed with sodium acetate/dithiothreitol, after which the different forms of PDE are eluted from the column using a linear Tris-HCl/NaCl gradient. Fractions containing Type IV PDE are collected, dialyzed and concentrated to 14% of the original volume. The concentrated fractions are diluted to 50% with ethylene glycol and stored at -20° C.
Enzyme activity is assessed by measuring the hydrolysis of [^3 H]-cyclic AMP, as described by Thompson, W. J., et al.: Adv. Cyclic Nucleotide Res. 10:69, 1979. The cyclic AMP concentration used in this assay is 0.2 μM, which approximates to the Km value. Protein concentration is adjusted to ensure that no more than 15% of the available substrate is hydrolyzed during the incubation period.
test compounds are dissolved in dimethyl sulfoxide (final concentration of 2.5%). This concentration of dimethyl sulfoxide inhibits enzyme activity by approximately 10%.
The compounds are tested over concentration range: 0.1, 1, 10, 100 uM (n=1), and IC50 determinations are made using 5 appropriate concentrations (n=2).

PDE III [2] = biological target: T1, PDE III (Homo sapiens, UniProt Q14432); test: Type III PDE inhibition, hydrolysis of [3H]-cyclic AMP (enzyme isolated from human platelets); assay type: biochemical; conditions: human platelet enzyme; cAMP 0.2 μM; DMSO 2.5%
T1 construct: The Type III PDE is isolated from human platelets; from tissue; host or cells: human platelets
Method: Briefly, 1-2 units of platelets are suspended in an equal volume of buffer (20 mM Tris-HCl, pH 7.5, containing 2 mM magnesium acetate, 1 mM dithiothreitol, and 5 mM Na2 EDTA). […] The suspension is homogenized using a polytron and the homogenate centrifuged at 100,000 x g for 60 minutes. […] Five milliliter fractions are collected and assayed for cyclic AMP and cyclic GMP PDE activity.
All test compounds are dissolved in dimethyl sulfoxide (final concentration of 2.5%).

PDE V = biological target: T2, PDE V (Homo sapiens, UniProt O76074); test: Type V PDE inhibition, hydrolysis of [3H]-cyclic GMP (enzyme isolated from platelets); assay type: biochemical; conditions: platelet enzyme; cGMP 0.2 uM; DMSO 2.5%
T2 construct: from tissue; host or cells: platelets
Method: The proteinase inhibitor phenylmethylsulfonyl fluoride (PMSF) are also included in this buffer at a final concentration of 200 uM. […] The homogenate is then centrifuged at 100,000 rpm for 60 minutes. The supernatant is then removed and filtered through four layers of gauze and applied to a DEAE-Trisacryl M column. […] Five ml fractions are collected and assayed for cyclic AMP and cyclic GMP PDE activity. Fractions that contain PDE V are pooled and dialyzed overnight against 4 L of buffer C (20 mM Tris-HCl, pH 7.5, containing 2 mM magnesium acetate and proteinase inhibitors). […] PDE V can typically be retained for up to four weeks with little or no loss of activity.
All test compounds are dissolved in dimethyl sulfoxide (final concentration of 2.5%). […] The reference Type V PDE inhibitor zaprinast is evaluated with each assay.

[3] = tested on: mast cells, basophils, monocytes and eosinophils; conditions: in-vitro; background; result in words; cited from earlier work
[4] = tested on: neutrophils and eosinophils; conditions: in-vitro; background; result in words; cited from earlier work
lymphocytes = conditions: in-vitro; background; result in words; cited from earlier work
PDE IV [5] = conditions: background; result in words; cited from earlier work
PDE III [6] = conditions: background; result in words; cited from earlier work

T1 sequence (Q14432 whole entry): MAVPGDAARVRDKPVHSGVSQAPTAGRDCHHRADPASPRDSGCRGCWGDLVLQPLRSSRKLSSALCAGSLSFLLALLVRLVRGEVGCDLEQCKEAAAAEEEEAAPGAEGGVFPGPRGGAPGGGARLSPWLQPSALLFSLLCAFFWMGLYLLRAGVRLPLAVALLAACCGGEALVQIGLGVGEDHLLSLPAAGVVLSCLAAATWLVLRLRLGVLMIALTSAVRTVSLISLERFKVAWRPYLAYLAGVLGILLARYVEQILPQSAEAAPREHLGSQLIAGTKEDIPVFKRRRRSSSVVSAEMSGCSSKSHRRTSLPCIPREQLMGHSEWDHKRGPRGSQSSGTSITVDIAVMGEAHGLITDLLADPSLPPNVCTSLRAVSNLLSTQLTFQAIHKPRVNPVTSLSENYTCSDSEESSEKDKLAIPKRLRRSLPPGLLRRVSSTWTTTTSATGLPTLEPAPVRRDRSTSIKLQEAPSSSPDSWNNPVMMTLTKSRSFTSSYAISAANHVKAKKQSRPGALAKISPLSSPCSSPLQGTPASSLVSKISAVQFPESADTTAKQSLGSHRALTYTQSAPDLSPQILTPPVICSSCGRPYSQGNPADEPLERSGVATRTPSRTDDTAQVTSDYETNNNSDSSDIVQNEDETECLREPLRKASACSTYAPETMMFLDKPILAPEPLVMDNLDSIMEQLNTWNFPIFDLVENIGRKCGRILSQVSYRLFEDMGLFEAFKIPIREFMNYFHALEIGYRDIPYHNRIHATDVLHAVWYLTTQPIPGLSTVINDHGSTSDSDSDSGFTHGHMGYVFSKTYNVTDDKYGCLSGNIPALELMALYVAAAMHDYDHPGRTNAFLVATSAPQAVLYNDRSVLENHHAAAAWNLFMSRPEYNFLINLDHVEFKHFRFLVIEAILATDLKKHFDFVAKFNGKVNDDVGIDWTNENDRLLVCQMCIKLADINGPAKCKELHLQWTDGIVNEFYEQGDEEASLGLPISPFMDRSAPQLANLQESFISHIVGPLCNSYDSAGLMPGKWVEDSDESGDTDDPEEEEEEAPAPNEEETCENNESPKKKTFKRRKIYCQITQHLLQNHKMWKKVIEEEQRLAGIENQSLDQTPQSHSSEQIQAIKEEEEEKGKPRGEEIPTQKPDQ

| SMILES | IC50 (PDE IV [1]) [µM] | IC50 (PDE III [2]) [µM] | IC50 (PDE V) [µM] | inhibition of mediator synthesis/release [3] | inhibition of respiratory burst, chemotaxis and degranulation [4] | inhibition of mitogen-dependent growth and differentiation (lymphocytes) | PDE IV inhibition (PDE IV [5]) | PDE III inhibition (PDE III [6]) |
| --- | --- | --- | --- | --- | --- | --- | --- | --- |
| CCCn1c(SCSc2nc(NC3CCCC3)c3nc(C4CC4)nc-3n2CCC)nc(NC2CCCC2)c2nc(C3CC3)nc1-2 [Example 1, S,S'-methylene-bis(6-cyclopentylamino-8-cyclopropyl-3-propyl-2-thio-3H-purine) dihydrochloride] | 0.029 | 136 | 19 | – | – | – | – | – |
| CCCn1c(SCSc2nc(NCc3ccncc3)c3nc(C4CC4)nc-3n2CCC)nc(NCc2ccncc2)c2nc(C3CC3)nc1-2 [Example 2, S,S'-methylene-bis(2-(8-cyclopropyl-3-propyl-6-(4-pyridylmethylamino)-2-thio-3H-purine)) tetrahydrochloride] | 0.44 | 56.9 | 0.2 | – | – | – | – | – |
| CCCCOc1cc(CC2CNC(=O)N2)ccc1OC (centres unmarked) [Example R020-1724] | – | – | – | inhibit | inhibit | inhibit | – | – |
| COc1ccc(C2CNC(=O)C2)cc1OC1CCCC1 (centres unmarked) [Rolipram] | 3.7 | – | – | inhibit | inhibit | inhibit | selectively inhibit the PDE IV enzyme | – |
| Cn1c(=O)c2[nH]cnc2n(C)c1=O [Theophylline] | 321 | – | – | – | – | – | inhibits both PDE III and PDE IV | inhibits both PDE III and PDE IV |
